Earlier results as cited in US20050232866A1, “Biochemically-activated contrast agents for magnetic resonance imaging” (Alerion Biomedical Inc., priority 2004, published 2005).

Columns and labels:
[1] = Gd(III) chelate
[2] = physiological pH

Structure (SMILES)	stability constant (formation constant) logK [1]	dissociation kinetics [2]
O=C([O-])CN(CCN(CC(=O)[O-])CC(=O)O)CCN(CC(=O)[O-])CC(=O)O.[Gd+3] [Gd(DTPA)]	22.4	–
O=C([O-])CN1CCN(CC(=O)[O-])CCN(CC(=O)O)CCN(CC(=O)[O-])CC1.[Gd+3] [Gd-DOTA]	28.5	very slow dissociation kinetics
